These results are taken from ChEMBL document CHEMBL6083204, “Synthesis of a celastrol derivative as a cancer stem cell inhibitor through regulation of the STAT3 pathway for treatment of ovarian cancer” (RSC Med Chem, 2024).

The subject of data set [1] is SK-OV-3. In words: Antiproliferative activity against human SK-OV-3 cells assessed as inhibition of cell growth incubated for 72 hrs by MTT assay. The settings on record: SK-OV-3, 72 h. It counts as functional, cell-based. (In general: Tetrazolium assays rely on reduction of a dye to a coloured formazan, in cell work by metabolically active cells.)
Data set [2] deals with A2780. The data set is described as follows: Antiproliferative activity against human A2780 cells assessed as inhibition of cell growth incubated for 72 hrs by MTT assay. In kind it is functional, cell-based. The settings on record: A2780, 72 h.
Data set [3] is described as follows: Cytotoxicity against human IOSE80 cells assessed as inhibition of cell growth incubated for 72 hrs by MTT assay. In kind it is toxicity, cell-based.
Data set [4] has as its system OVCAR-3. The data set is described as follows: Antiproliferative activity against human OVCAR-3 cells assessed as inhibition of cell growth incubated for 72 hrs by MTT assay. The settings on record: OVCAR-3, 72 h. It counts as functional, cell-based.
The nature of data set [5]: Selectivity index, ratio of IC50 for cytotoxicity against human IOSE80 cells to IC50 for cytotoxicity against human SK-OV-3 cells.

Molecules are shown by their SMILES.

Broadly, the IC50 is the concentration that inhibits the measured activity by half. On to `COc1cccc2c1C(=O)c1c(O)c3c(c(O)c1C2=O)C[C@@](O)(C(=O)CO)C[C@@H]3O[C@H]1C[C@H](N)[C@H](O)[C@H](C)O1` [DOXORUBICIN], for which the 50% inhibitory concentration (IC50) in data set [1] came out at 1680 nM; in data set [2] it was 4180 nM. Moreover, the IC50 at 72 h in data set [3] was 760 nM.

As for `CC1=C(O)C(=O)C=C2C1=CC=C1[C@@]2(C)CC[C@@]2(C)[C@@H]3C[C@](C)(C(=O)O)CC[C@]3(C)CC[C@]12C` [CELASTROL], the figures for the half-maximal inhibitory concentration (IC50) in data set [1], in data set [2] and in data set [4] were 1270 nM, 1990 nM and 840 nM, respectively. Besides, the 50% inhibitory concentration (IC50) at 72 h in data set [3] stood at 2380 nM. Also, the “Ratio IC50” value in data set [5] came to 1.87.
